Measured values taken from patent publication US20210198269A1, “INHIBITORS OF GLUCOSE TRANSPORTERS (GLUTs)” (LEAD DISCOVERY CENTER GMBH, priority 2018, published 2021).

What was measured:
Assay type in all cases: cell-based
GLUT1 = target: T1, GLUT1 (Homo sapiens, UniProt P11166); test: GLUT1 transporter activity assay (2-DG uptake) in DLD1 cells; settings: DLD1 cell line; read-out: GLUT1 inhibitory activity (IC50)
T1 construct: host or cells: DLD-1 (DLD1) cells
T1 sequence (P11166 1-492): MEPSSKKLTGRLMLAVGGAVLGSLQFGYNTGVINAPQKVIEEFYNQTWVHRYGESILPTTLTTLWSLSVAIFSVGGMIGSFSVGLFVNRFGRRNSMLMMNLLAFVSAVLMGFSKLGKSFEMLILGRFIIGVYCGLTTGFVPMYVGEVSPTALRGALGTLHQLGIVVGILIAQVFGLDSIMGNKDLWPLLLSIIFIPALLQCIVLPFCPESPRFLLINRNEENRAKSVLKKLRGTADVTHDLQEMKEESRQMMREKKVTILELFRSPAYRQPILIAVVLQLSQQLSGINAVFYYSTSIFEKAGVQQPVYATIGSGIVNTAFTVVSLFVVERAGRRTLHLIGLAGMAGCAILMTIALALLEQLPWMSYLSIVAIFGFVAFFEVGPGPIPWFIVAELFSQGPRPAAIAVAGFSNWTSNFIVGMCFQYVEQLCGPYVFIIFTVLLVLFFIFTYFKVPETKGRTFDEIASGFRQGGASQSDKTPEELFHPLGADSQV
From the text: (§1) GLUT 1, 2, 3 and 4 Transporter Activity Assays
(§2) Assays were based on the specificity assays reported by Kapoor et al., Proceedings of the National Academy of Sciences 2016, 113 (17) 4711-4716. For GLUT1, GLUT2, GLUT3 and GLUT4 specificity testing DLD1, CHO-hGLUT2, DLD-1-GLUT1−/− and CHO-hGLUT4 cell lines were used.
(§3) Assay protocols for 2-deoxy-Glucose (2-DG) Uptake Assay with DLD1 or DLD1-Glut1(−/−) cells or 7,000 CHOK1-SLC2A4 cells lines:
(§4) 14,000 DLD1 or DLD1-Glut1(−/−) cells or 7,000 CHOK1-SLC2A4 cells were seeded in black, clear bottom 384-well plates in glucose- and phenolred-free RPMI1640 medium supplemented with 1% FCS and 2 mM L-glutamine and allowed to attach overnight. Next day, cells were washed and incubated with compounds or DMSO and 1 mM 2-DG in glucose- and phenolred-free RPMI1640 medium for 30 min. Cells were then washed and lysed in 0.06 M HCl and 1% CHAPS for 15 min at 65° C. The amount of 2-DG in the lysate was determined by means of enzyme-coupled assay. For this 16 U/mL glucose-6-phosphate dehydrogenase, 0.2 U/mL diaphorase, 0.1 mM NADP^+ and 10 μM resazurin were added to the lysates. Resorufin fluorescence was determined as a measure of 2-DG uptake at ex/em 535/590 nm with a Victor Multilabel plate reader (Perkin Elmer). Blank values were subtracted from all readings and values were normalized to the DMSO control.

GLUT2 = target: T2, GLUT2 (Homo sapiens, UniProt P11168); test: GLUT2 transporter activity assay in CHO-hGLUT2 cells (indirect, intracellular ATP levels); settings: CHO-hGLUT2 cell line; read-out: GLUT2 inhibitory activity (IC50)
T2 sequence (P11168 1-524): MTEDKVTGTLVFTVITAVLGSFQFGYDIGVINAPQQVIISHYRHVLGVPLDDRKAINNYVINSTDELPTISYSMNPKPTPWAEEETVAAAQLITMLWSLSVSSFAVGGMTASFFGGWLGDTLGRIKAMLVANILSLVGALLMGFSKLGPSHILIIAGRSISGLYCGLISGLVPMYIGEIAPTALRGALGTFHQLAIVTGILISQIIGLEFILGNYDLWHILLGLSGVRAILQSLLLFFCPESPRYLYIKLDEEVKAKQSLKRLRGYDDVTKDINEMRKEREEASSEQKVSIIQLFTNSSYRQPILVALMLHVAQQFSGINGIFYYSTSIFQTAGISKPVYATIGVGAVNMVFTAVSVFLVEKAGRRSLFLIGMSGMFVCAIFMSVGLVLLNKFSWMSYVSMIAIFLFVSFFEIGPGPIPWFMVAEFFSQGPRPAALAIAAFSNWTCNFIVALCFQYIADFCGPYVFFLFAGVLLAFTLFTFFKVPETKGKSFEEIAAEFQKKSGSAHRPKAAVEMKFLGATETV
From the text: as §1, §2
Example 8-3: Indirect Measurement of GLUT2 (SLC2A2) Activity by Quantification of Intracellular ATP Levels
A combination of small-molecule inhibitors of mitochondrial electron transport chain and glucose catabolism synergistically suppress ATP production and impair cellular viability (Ulanovskaya et al., 2008, 2011; Liu, et al. 2001). We therefore used CHOK1 cells overexpressing SLC2A2 (CHOK1-SLC2A2) in combination with an oxidative phosphorylation inhibitor (Rotenon) to identify GLUT2 inhibitors. CHOK1-SLC2A2 cells were purchased from creative biogene (catNo: CSC-SC014484) and maintained in RPMI1640 supplemented with 10% FBS and 2 mM L-Glutamine. For the Glut2-ATP-Assay, 7,500 cells were seeded in black, clear bottom 384-well plates directly in glucose- and phenolred-free RPMI1640 medium supplemented with 1% FCS and 2 mM L-glutamine and cultured overnight to reduce intracellular ATP levels. Next day, cells were washed and incubated with […] and compounds or DMSO and 2.5 mM fructose in glucose- and phenolred-free RPMI1640 medium for 40 min. The CellTiter-Glo® Luminescence Viability Assay from Promega was used to measure ATP levels. Luminescence was measured with a Victor Multilabel plate reader (Perkin Elmer). Blank values were subtracted from all readings and values were normalized to the DMSO control.

GLUT3 = target: T3, GLUT3 (Homo sapiens, UniProt P11169); test: GLUT3 transporter activity assay (2-DG uptake) in DLD-1-GLUT1-/- cells; settings: DLD-1-GLUT1-/- cell line; read-out: GLUT3 inhibitory activity (IC50)
T3 construct: host or cells: DLD-1-GLUT1(-/-) cells
T3 sequence (P11169 1-496): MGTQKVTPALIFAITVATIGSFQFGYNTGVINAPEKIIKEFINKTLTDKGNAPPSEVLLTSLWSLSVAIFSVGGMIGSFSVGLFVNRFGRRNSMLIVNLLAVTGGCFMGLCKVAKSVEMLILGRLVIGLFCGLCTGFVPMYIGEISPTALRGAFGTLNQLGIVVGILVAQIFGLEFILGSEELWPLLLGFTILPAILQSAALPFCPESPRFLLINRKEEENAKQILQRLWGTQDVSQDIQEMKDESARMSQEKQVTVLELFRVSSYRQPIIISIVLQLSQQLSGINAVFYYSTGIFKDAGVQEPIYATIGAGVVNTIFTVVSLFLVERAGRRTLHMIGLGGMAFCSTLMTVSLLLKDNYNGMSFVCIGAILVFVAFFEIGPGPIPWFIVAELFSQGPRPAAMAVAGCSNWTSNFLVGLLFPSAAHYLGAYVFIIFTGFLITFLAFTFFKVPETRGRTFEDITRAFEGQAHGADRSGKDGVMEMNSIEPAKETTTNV
From the text: as §1, §2, §3, §4

GLUT4 = target: T4, GLUT4 (Homo sapiens, UniProt P14672); test: GLUT4 transporter activity assay (2-DG uptake) in CHO-hGLUT4 cells; settings: CHO-hGLUT4 cell line; read-out: GLUT4 inhibitory activity (IC50)
T4 sequence (P14672 1-509): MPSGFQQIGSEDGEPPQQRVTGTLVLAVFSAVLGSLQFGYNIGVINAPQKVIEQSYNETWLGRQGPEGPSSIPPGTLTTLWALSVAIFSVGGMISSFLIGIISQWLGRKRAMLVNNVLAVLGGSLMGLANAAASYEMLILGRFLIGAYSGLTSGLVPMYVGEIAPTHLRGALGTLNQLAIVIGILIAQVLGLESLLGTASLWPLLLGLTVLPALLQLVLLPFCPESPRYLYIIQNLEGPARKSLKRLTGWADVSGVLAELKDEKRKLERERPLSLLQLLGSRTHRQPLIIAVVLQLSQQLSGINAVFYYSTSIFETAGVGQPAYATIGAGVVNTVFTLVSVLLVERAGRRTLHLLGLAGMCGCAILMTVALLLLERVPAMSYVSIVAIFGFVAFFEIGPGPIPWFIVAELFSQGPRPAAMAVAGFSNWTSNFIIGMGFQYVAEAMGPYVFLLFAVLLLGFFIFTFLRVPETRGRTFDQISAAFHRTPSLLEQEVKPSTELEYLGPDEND
Description: CHOK1-SLC2A4 cells were generated by transfection of CHOK1 cells with pCMV6-Entry-GLUT4 (Origene #SC125240) using Lipofectamin2000 according to the supplier's instructions. Briefly, 1.5E5 cells/well CHOK1 cells were seeded in 6-well cell culture plates. After overnight incubation, DNA-lipid complexes (2 μg plasmid DNA, DNA:lipid ratio 1:10) were prepared in OptiMEM and then added to the cells. After 5 days incubation, 800 μg G418 was added to the culture medium to generate a stable polyclone. For monoclone selection, single cells were re-plated in 96-well plates, expanded and selected by transgene overexpression and functional performance.
as §1, §2, §3, §4

SMILES	IC50 (GLUT1)	IC50 (GLUT2)	IC50 (GLUT3)	IC50 (GLUT4)
Cc1ccc(CCNC(=O)c2cccc(N3C(=O)NC4CC3(C)Oc3c(OCc5ccccc5)cccc34)c2)cc1 (stereo not drawn) [Compound A01, 3-(10-(Benzyloxy)-2-methyl-4-oxo-5,6-dihydro-2H-2,6-methanobenzo[g][1,3,5]oxadiazocin-3(4H)-yl)-N-(4-methylphenethyl)benzamide]	≤ 0.3 µM	10 to 25 µM	≤ 0.3 µM	10 to 25 µM
Cc1ccc(CCNC(=O)c2cccc(N3C(=O)NC4CC3(C)Oc3c(OCc5cccnc5)cccc34)c2)cc1 (stereo not drawn) [Compound A10, 3-(2-Methyl-4-oxo-10-(pyridin-3-ylmethoxy)-5,6-dihydro-2H-2,6-methanobenzo[g][1,3,5]oxadiazocin-3(4H)-yl)-N-(4-methylphenethyl)benzamide]	≤ 0.3 µM	4 to 10 µM	0.3 to 1 µM	4 to 10 µM
Cc1ccc(CCNC(=O)c2cccc(N3C(=O)NC4CC3(C)Oc3c(OCc5ccccn5)cccc34)c2)cc1 (stereo not drawn) [Compound A11, 3-(2-Methyl-4-oxo-10-(pyridin-2-ylmethoxy)-5,6-dihydro-2H-2,6-methanobenzo[g][1,3,5]oxadiazocin-3(4H)-yl)-N-(4-methylphenethyl)benzamide]	≤ 0.3 µM	4 to 10 µM	≤ 0.3 µM	1 to 4 µM
Cc1ccc(CCNC(=O)c2cccc(N3C(=O)NC4CC3(C)Oc3c(OCc5c(C)noc5C)cccc34)c2)cc1 (stereo not drawn) [Compound A15, 3-(10-((3,5-Dimethylisoxazol-4-yl)methoxy)-2-methyl-4-oxo-5,6-dihydro-2H-2,6-methanobenzo[g][1,3,5]oxadiazocin-3(4H)-yl)-N-(4-methylphenethyl)benzamide]	0.3 to 1 µM	10 to 25 µM	0.3 to 1 µM	4 to 10 µM
Cc1ccc(CCNC(=O)c2cccc(N3C(=O)NC4CC3(C)Oc3c(OCc5nccn5C)cccc34)c2)cc1 (stereo not drawn) [Compound A16, 3-(2-Methyl-10-((1-methyl-1H-imidazol-2-yl)methoxy)-4-oxo-5,6-dihydro-2H-2,6-methanobenzo[g][1,3,5]oxadiazocin-3(4H)-yl)-N-(4-methylphenethyl)benzamide]	1 to 4 µM	> 25 µM		> 25 µM
CC12CC(NC(=O)N1c1cccc(C(=O)NCCOc3ccccc3)c1)c1cccc(OCc3ccccc3)c1O2 (stereo not drawn) [Compound A21, 3-(10-(benzyloxy)-2-methyl-4-oxo-5,6-dihydro-2H-2,6-methanobenzo[g][1,3,5]oxadiazocin-3(4H)-yl)-N-(2-phenoxyethyl)benzamide]	1 to 4 µM	> 25 µM	1 to 4 µM	10 to 25 µM
Cc1ccc(CCN(C)C(=O)c2cccc(N3C(=O)NC4CC3(C)Oc3c(OCc5ccccc5)cccc34)c2)cc1 (stereo not drawn) [Compound A23, 3-(10-(benzyloxy)-2-methyl-4-oxo-5,6-dihydro-2H-2,6-methanobenzo[g][1,3,5]oxadiazocin-3(4H)-yl)-N-methyl-N-(4-methylphenethyl)benzamide]	0.3 to 1 µM	> 25 µM	0.3 to 1 µM	4 to 10 µM
CC12CC(NC(=O)N1c1cccc(C(=O)NCCCc3ccccc3)c1)c1cccc(OCc3ccccc3)c1O2 (stereo not drawn) [Compound A33, 3-(10-(benzyloxy)-2-methyl-4-oxo-5,6-dihydro-2H-2,6-methanobenzo[g][1,3,5]oxadiazocin-3(4H)-yl)-N-(3-phenylpropyl)benzamide]	0.3 to 1 µM	> 25 µM	0.3 to 1 µM	1 to 4 µM
Cc1ccc(OCCNC(=O)c2cccc(N3C(=O)NC4CC3(C)Oc3c(OCc5ccccc5)cccc34)c2)cc1 (stereo not drawn) [Compound A35, 3-(10-(benzyloxy)-2-methyl-4-oxo-5,6-dihydro-2H-2,6-methanobenzo[g][1,3,5]oxadiazocin-3(4H)-yl)-N-(2-(4-methylphenoxy)ethyl)benzamide]	0.3 to 1 µM	> 25 µM	0.3 to 1 µM	10 to 25 µM
CC12CC(NC(=O)N1c1cccc(C(=O)NCCc3ccccc3)c1)c1cccc(OCc3ccccc3)c1O2 (stereo not drawn) [Compound A36, 3-(10-(benzyloxy)-2-methyl-4-oxo-5,6-dihydro-2H-2,6-methanobenzo[g][1,3,5]oxadiazocin-3(4H)-yl)-N-(phenethyl)benzamide]	0.3 to 1 µM	> 25 µM	0.3 to 1 µM	4 to 10 µM
